# Measured values: ChEMBL document CHEMBL3272192, “Thyroxine analogues. 23. Quantitative structure-activity correlation studies of in vivo and in vitro thyromimetic activities” (1977)
# Experiments:
# Rattus norvegicus [1] = test: In vivo antigoiter activity in rat; type: functional
# [2] = target: T1, Thyroxine-binding globulin (Homo sapiens) (UniProt P05543); test: Binding affinity to thyroxine binding globulin (unknown origin) relative to T4
# T1 sequence (whole entry): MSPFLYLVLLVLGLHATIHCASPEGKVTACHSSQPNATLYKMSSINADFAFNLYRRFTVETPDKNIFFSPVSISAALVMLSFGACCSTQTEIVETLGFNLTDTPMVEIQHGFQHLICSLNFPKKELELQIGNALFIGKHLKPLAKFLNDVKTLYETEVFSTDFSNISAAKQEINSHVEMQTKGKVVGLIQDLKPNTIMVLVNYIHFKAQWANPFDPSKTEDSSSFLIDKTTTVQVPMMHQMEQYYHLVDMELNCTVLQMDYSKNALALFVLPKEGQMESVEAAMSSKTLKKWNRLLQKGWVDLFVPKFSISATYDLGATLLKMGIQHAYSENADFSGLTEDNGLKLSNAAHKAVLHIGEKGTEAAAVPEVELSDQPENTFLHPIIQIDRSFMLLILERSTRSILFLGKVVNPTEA
# Rattus norvegicus [3] = organism: Rattus norvegicus; test: Displacement of radiolabelled L-T3 from thyroid hormone receptor in intact rat hepatic nuclei relative to T3
RBA [2],log(%) [2],RBA (Rattus norvegicus [3]),log(%) (Rattus norvegicus [3]),Compound,Activity (Rattus norvegicus [1]),log(%) (Rattus norvegicus [1])
9%,0.954,–,–,N[C@@H](Cc1cc(I)c(Oc2ccc(O)c(I)c2)c(I)c1)C(=O)O [LIOTHYRONINE],100%,2
0.06%,-1.22,–,–,NC(Cc1cc(I)c(Oc2ccc(O)c(O)c2)c(I)c1)C(=O)O (centres undefined),0.27%,-0.569
–,–,–,–,Cc1cc(Oc2c(I)cc(CC(N)C(=O)O)cc2I)ccc1N (centres undefined),0.036%,-1.444
–,–,–,–,NC(Cc1cc(Br)c(Oc2cc(Br)c(O)c(Br)c2)c(Br)c1)C(=O)O (centres undefined),0.065%,-1.187
–,–,–,–,Cc1cc(CC(N)C(=O)O)cc(I)c1Oc1ccc(O)cc1 (centres undefined),0.093%,-1.032
100%,2,12.5%,1.1,NC(Cc1cc(I)c(Oc2cc(I)c(O)c(I)c2)c(I)c1)C(=O)O (centres undefined) [THYROXINE],18.1%,1.258
–,–,–,–,NC(Cc1cc(Cl)c(Oc2ccc(O)c(Cl)c2)c(Cl)c1)C(=O)O (centres undefined),0.091%,-1.041
–,–,1.1%,0.041,Cc1c(O)ccc(Oc2c(I)cc(CC(N)C(=O)O)cc2I)c1C (centres undefined),9.04%,0.956
–,–,–,–,NC(Cc1cc(Cl)c(Oc2cc(Cl)c(O)c(I)c2)c(I)c1)C(=O)O (centres undefined),2.27%,0.356
0.67%,-0.174,38.5%,1.59,CC(C)(C)c1cc(Oc2c(I)cc(CC(N)C(=O)O)cc2I)ccc1O (centres undefined),21.7%,1.336
–,–,100%,2,NC(Cc1cc(I)c(Sc2ccc(O)c(I)c2)c(I)c1)C(=O)O (centres undefined),13.82%,1.14
–,–,0.2%,-0.699,NC(Cc1cc(I)c(Oc2cccc(C(F)(F)F)c2)c(I)c1)C(=O)O (centres undefined),13.56%,1.132
–,–,–,–,NC(Cc1cc(I)c(Oc2cc(Br)c(O)c(Br)c2)c(I)c1)C(=O)O (centres undefined),1.58%,0.199
–,–,4.5%,0.653,NC(Cc1cc(I)c(Oc2cc(Cl)c(O)c(Cl)c2)c(I)c1)C(=O)O (centres undefined),3.8%,0.58
0.07%,-1.16,0.3%,-0.523,NC(Cc1cc(I)c(Oc2ccc(O)cc2)c(I)c1)C(=O)O (centres undefined),0.81%,-0.092
–,–,0.3%,-0.523,Cc1cc(O)c(I)cc1Oc1c(I)cc(CC(N)C(=O)O)cc1I (centres undefined),0.36%,-0.444
–,–,–,–,NC(Cc1cc(I)c(Oc2cccc(Br)c2)c(I)c1)C(=O)O (centres undefined),18%,1.225
–,–,–,–,Cc1cc(CC(N)C(=O)O)cc(I)c1Oc1ccc(O)c(I)c1 (centres undefined),6.24%,0.795
–,–,–,–,COc1ccc(Oc2c(I)cc(CC(N)C(=O)O)cc2I)cc1C(C)C (centres undefined),19%,1.279
–,–,–,–,CC(C)c1cc(Oc2c(I)cc(CC(N)C(=O)O)cc2I)cc(I)c1O (centres undefined),55.36%,1.743
–,–,–,–,CCC(C)c1cc(Oc2c(I)cc(CC(N)C(=O)O)cc2I)ccc1O (centres undefined),79.9%,1.902

RBA [2],log(%) [2],RBA (Rattus norvegicus [3]),log(%) (Rattus norvegicus [3]),Compound,Activity (Rattus norvegicus [1]),log(%) (Rattus norvegicus [1])
–,–,–,–,CCC(C)c1cc(Oc2c(C)cc(CC(N)C(=O)O)cc2C)ccc1O (centres undefined),2.91%,0.464
–,–,0.2%,-0.699,Cc1cccc(Oc2c(I)cc(CC(N)C(=O)O)cc2I)c1 (centres undefined),2.71%,0.433
–,–,0.4%,-0.398,NC(Cc1cc(I)c(Oc2cccc(I)c2)c(I)c1)C(=O)O (centres undefined),27.12%,1.433
–,–,8%,0.903,NC(Cc1cc(I)c(Oc2ccc(O)c3ccccc23)c(I)c1)C(=O)O (centres undefined),–,–
–,–,0.1%,-1,Cc1cc(Oc2c(C)cc(CC(N)C(=O)O)cc2C)cc(C)c1O (centres undefined),0.36%,-0.444
–,–,–,–,NC(Cc1cc(Br)c(Oc2cc(Br)c(O)c(I)c2)c(I)c1)C(=O)O (centres undefined),2.83%,0.452
–,–,2.6%,0.415,NC(Cc1cc(I)c(Cc2cc(I)c(O)c(I)c2)c(I)c1)C(=O)O (centres undefined),–,–
–,–,–,–,NC(Cc1cc(I)c(Oc2cc(F)c(O)c(F)c2)c(I)c1)C(=O)O (centres undefined),0.43%,-0.366
–,–,–,–,NC(Cc1cc(I)c(Oc2cccc(Cl)c2)c(I)c1)C(=O)O (centres undefined),7.78%,0.891
–,–,1.4%,0.146,CC(C)c1cc(Oc2c(I)cc(CC(N)C(=O)O)cc2I)cc(C(C)C)c1O (centres undefined),–,–
3.53%,0.548,100%,2,CC(C)c1cc(Oc2c(I)cc(CC(N)C(=O)O)cc2I)ccc1O (centres undefined),142.1%,2.153
–,–,–,–,Cc1cc(CC(N)C(=O)O)ccc1Oc1ccc(O)c(I)c1 (centres undefined),0.12%,-0.921
–,–,–,–,COc1ccc(Oc2c(I)cc(CC(N)C(=O)O)cc2I)cc1I (centres undefined),11.25%,1.051
–,–,–,–,NC(Cc1cc(Br)c(Oc2ccc(O)c(I)c2)c(Br)c1)C(=O)O (centres undefined),16.87%,1.227
–,–,1.4%,0.146,NC(Cc1cc(Br)c(Oc2ccc(O)c(I)c2)c(I)c1)C(=O)O (centres undefined),71.98%,1.857
–,–,–,–,NC(Cc1cc(Br)c(Oc2ccc(O)c(Br)c2)c(Br)c1)C(=O)O (centres undefined),4.63%,0.666
–,–,–,–,Cc1cc(C)cc(Oc2c(I)cc(CC(N)C(=O)O)cc2I)c1 (centres undefined),0.054%,-0.839
–,–,0.76%,-0.119,Nc1ccc(Oc2c(I)cc(CC(N)C(=O)O)cc2I)cc1 (centres undefined),0.27%,-0.569
–,–,–,–,NC(Cc1cc(I)c(Oc2ccccc2)c(I)c1)C(=O)O (centres undefined),1.24%,0.093
–,–,6.2%,0.792,NC(Cc1cc(I)c(Oc2ccc(O)c(Cl)c2)c(I)c1)C(=O)O (centres undefined),4.88%,0.688
–,–,0.1%,-1,Cc1cc(Oc2c(I)cc(CC(N)C(=O)O)cc2I)c(C)cc1O (centres undefined),0.18%,-0.745

RBA [2],log(%) [2],RBA (Rattus norvegicus [3]),log(%) (Rattus norvegicus [3]),Compound,Activity (Rattus norvegicus [1]),log(%) (Rattus norvegicus [1])
–,–,–,–,CCCc1cc(Oc2c(I)cc(CC(N)C(=O)O)cc2I)ccc1O (centres undefined),39.5%,1.597
–,–,–,–,NC(Cc1cc(I)c(Oc2cccc(F)c2)c(I)c1)C(=O)O (centres undefined),1.39%,0.143
0.04%,-1.4,2%,0.301,NC(Cc1cc(I)c(Oc2ccc(O)c(-c3ccccc3)c2)c(I)c1)C(=O)O (centres undefined),2.03%,0.308
–,–,–,–,NC(Cc1cc(Br)c(Oc2cc(I)c(O)c(I)c2)c(Br)c1)C(=O)O (centres undefined),1.97%,0.294
–,–,36%,1.56,CC(C)c1cc(Oc2c(Br)cc(CC(N)C(=O)O)cc2Br)ccc1O (centres undefined),30%,1.477
–,–,–,–,COc1ccc(Oc2c(I)cc(CC(N)C(=O)O)cc2I)cc1C(C)(C)C (centres undefined),2.35%,0.371
–,–,8%,0.903,NC(Cc1cc(I)c(Oc2ccc(O)c3c2CCCC3)c(I)c1)C(=O)O (centres undefined),18.08%,1.257
–,–,–,–,NC(Cc1cc(I)c(Oc2cc(F)c(O)c(I)c2)c(I)c1)C(=O)O (centres undefined),6.03%,0.78
–,–,0.1%,-1,Cc1cc(Oc2c(C)cc(CC(N)C(=O)O)cc2C)ccc1O (centres undefined),0.54%,-0.268
–,–,1.3%,0.114,NC(Cc1cc(I)c(Sc2ccc(O)cc2)c(I)c1)C(=O)O (centres undefined),–,–
–,–,0.2%,–,CC(C)c1cc(CC(N)C(=O)O)cc(C(C)C)c1Oc1ccc(O)c(I)c1 (centres undefined),–,–
–,–,1.4%,0.146,NC(Cc1cc(I)c(Oc2ccc(O)c(C3CCCCC3)c2)c(I)c1)C(=O)O (centres undefined),–,–
–,–,–,–,CCCc1cc(Oc2c(C)cc(CC(N)C(=O)O)cc2C)ccc1O (centres undefined),2.36%,0.373
–,–,–,–,NC(Cc1cc(I)c(Oc2ccc(O)c(Br)c2)c(I)c1)C(=O)O (centres undefined),23.78%,1.376
–,–,–,–,Cc1cc(Oc2c(I)cc(CC(N)C(=O)O)cc2I)cc(C)c1N (centres undefined),0.31%,-0.886
–,–,0.7%,-0.155,Cc1cc(CC(N)C(=O)O)cc(C)c1Oc1ccc(O)c(C(C)C)c1 (centres undefined),3.6%,0.556
–,–,–,–,NC(Cc1cc(I)c(Oc2ccc(O)c(F)c2)c(I)c1)C(=O)O (centres undefined),0.65%,-0.785
–,–,–,–,Cc1cc(CC(N)C(=O)O)cc(C)c1Oc1ccc(O)c(I)c1 (centres undefined),0.9%,-0.046
–,–,–,–,NC(Cc1cc(I)c(Oc2ccc(O)c([N+](=O)[O-])c2)c(I)c1)C(=O)O (centres undefined),0.18%,-0.745

Compound,RBA [2],log(%) [2],RBA (Rattus norvegicus [3]),log(%) (Rattus norvegicus [3]),Activity (Rattus norvegicus [1]),log(%) (Rattus norvegicus [1])
NC(Cc1ccc(Oc2cc(I)c(O)c(I)c2)c(I)c1)C(=O)O (centres undefined) [REVERSETRIIODOTHYRONINE],–,–,0.1%,-1,0.125%,-0.903
NC(Cc1ccc(Oc2ccc(O)c(I)c2)c(I)c1)C(=O)O (centres undefined) [DIIODOTHYRONINE],–,–,0.5%,-0.301,0.056%,-1.252
NC(Cc1cc(I)c(Cc2ccc(O)c(I)c2)c(I)c1)C(=O)O (centres undefined),–,–,250%,2.4,54.25%,1.734
